Data reported in US7863330B2, “Deloxiglumide and proton pump inhibitor combination in the treatment of gastrointestinal disorders” (Rottapharm S.p.A., priority 2006, dated 2011).

Legend:
[1] = tested on: antro-pyloroduodenal dysmotility; conditions: healthy subjects; intraduodenal infusion of a mixed liquid meal; cited from earlier work
[2] = tested on: CCK release in response to duodenal lipid infusion; conditions: healthy subjects, cited from earlier work
[3] = tested on: CCK-induced delay in gastric emptying; conditions: healthy subjects; cited from earlier work
[4] = tested on: nonulcer dyspepsia; conditions: cited from earlier work
[5] = target: T1, CCK1 receptors (Homo sapiens, UniProt P32238); conditions: cited from earlier work
T1 sequence (P32238 1-428): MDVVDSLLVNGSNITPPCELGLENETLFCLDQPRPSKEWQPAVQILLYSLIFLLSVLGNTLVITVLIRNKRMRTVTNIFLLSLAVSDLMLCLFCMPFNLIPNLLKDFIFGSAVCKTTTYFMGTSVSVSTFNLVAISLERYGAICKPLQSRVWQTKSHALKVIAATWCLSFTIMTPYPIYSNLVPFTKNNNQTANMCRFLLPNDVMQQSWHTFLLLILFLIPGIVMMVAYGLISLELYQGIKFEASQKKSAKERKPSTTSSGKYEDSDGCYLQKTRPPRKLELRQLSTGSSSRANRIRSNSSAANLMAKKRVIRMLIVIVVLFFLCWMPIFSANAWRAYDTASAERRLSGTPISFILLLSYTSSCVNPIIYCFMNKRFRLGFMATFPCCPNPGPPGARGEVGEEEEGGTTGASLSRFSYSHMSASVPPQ

[6] = tested on: endogenous and exogenous CCK; conditions: cited from earlier work
[7] = tested on: acute reflux esophagitis in pylorus-ligated rats; experiment: Acute reflux esophagitis in pylorus- and limiting ridge-ligated rats; assay type: in vivo; set-up: key to Average Score lesions: lesion index 0 = no lesion to 6 = hemorrhage >40 mm/perforation; conditions: for ED50: Rattus norvegicus, intraduodenal, compound administered separately, intraduodenally, from dose-response regression line, read-out: ED50 (dose which reduces the esophagus lesions by 50%); for % Effect vs. control: after 3 hours; for Average Score lesions: esophagus lesion index 0-6 after 3 hours
Experimental: Male rats of 175-200 g body weight were fasted for 24 hours prior the experiment. Water was allowed ad libitum. Under ether anesthesia, the abdomen was incised along the midline, and both pylorus and limiting ridge (transitional region between the forestomach and corpus) were simultaneously ligated. Consequently, the total capacity of the stomach to hold gastric juice was greatly diminished, resulting in reflux of gastric juice into the esophagus. Following ligation of pylorus and limiting ridge, the test compounds were given intraduodenally (5 ml/kg), and the abdomen was closed by suturing. After 3 hours, rats were killed by ether overdose and the gastroesophageal portion was excised. The lesion in the thoracic esophagus was scored macroscopically, using a lesion index according to the following criteria: no lesion as 0; edema as 1; reddening as 2; the length of hemorrhagic area<20 mm as 3; the length of hemorrhagic area 20-30 mm as 4; the length of hemorrhagic area 30-40 mm as 5; the length of hemorrhagic area>40 mm or perforation as 6.
The doses of the tested compounds which reduce of 50% the esophagus lesions (ED50) and their P=0.05 fiducial limits were calculated from the dose-response regression line.

[8] = target: T2, CCK2 receptors (Homo sapiens, UniProt P32239); conditions: cited from earlier work
T2 sequence (P32239 1-447): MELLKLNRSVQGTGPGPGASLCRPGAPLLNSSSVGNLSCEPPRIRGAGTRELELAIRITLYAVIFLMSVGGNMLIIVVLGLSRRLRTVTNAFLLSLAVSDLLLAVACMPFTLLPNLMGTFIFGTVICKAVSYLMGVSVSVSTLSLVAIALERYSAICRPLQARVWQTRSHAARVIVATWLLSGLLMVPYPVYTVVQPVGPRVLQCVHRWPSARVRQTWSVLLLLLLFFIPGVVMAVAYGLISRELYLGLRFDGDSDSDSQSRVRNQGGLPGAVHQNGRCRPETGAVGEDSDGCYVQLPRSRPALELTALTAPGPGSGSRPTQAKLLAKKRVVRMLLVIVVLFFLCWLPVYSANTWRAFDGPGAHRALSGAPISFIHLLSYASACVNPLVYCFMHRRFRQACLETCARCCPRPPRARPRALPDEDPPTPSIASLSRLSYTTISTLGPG

[9] = tested on: functional dyspepsia; conditions: patients with functional dyspepsia; duodenal infusion of lipid with or without balloon distension; compared to placebo; cited from earlier work
[10] = tested on: gastrointestinal motility; conditions: preclinical and clinical studies; cited from earlier work

CCCCCN(CCCOC)C(=O)C(CCC(=O)O)NC(=O)c1ccc(Cl)c(Cl)c1 (racemic) [Loxiglumide, R,S-4-(3,4-dichlorobenzoylamino)-5-(N-3-methoxypropyl-pentylamino)-5-oxo-pentanoic acid]
antro-pyloroduodenal dysmotility [1]: modulated antro-pyloroduodenal dysmotility | proximal gastric relaxation ([2]; duodenal infusion of lipid): the relaxation was reversed | intragastric pressure ([2]; duodenal infusion of lipids): able to reverse the lowering of intragastric pressure | exogenous and endogenous CCK-induced delay in gastric emptying of liquids and solids [3]: reduced | dyspeptic symptoms ([4]; patients with non-ulcer dyspepsia, 8-week study): significantly improved dyspeptic symptoms | gastric emptying ([4]; patients with nonulcer dyspepsia and delayed gastric emptying, comparison to placebo): accelerate gastric emptying | potency and specificity as CCK receptor antagonist [5]: potent, specific competitive antagonists | activity after oral administration [6]: active after oral administration

COc1ccc2[nH]c([S+]([O-])Cc3ncc(C)c(OC)c3C)nc2c1 (stereo not drawn) [Omeprazole]
ED50 [7]: 5.4 mg/kg | % Effect vs. control ([7]; dose 0.1 mg/kg intraduodenally): 3.4% | Average Score lesions ([7]; dose 0.1 mg/kg intraduodenally): 5.6 | % Effect vs. control ([7]; dose 0.3 mg/kg intraduodenally): 0% | Average Score lesions ([7]; dose 0.3 mg/kg intraduodenally): 5.8 | % Effect vs. control ([7]; dose 1.0 mg/kg intraduodenally): 14.3% | Average Score lesions ([7]; dose 1.0 mg/kg intraduodenally): 4.8 | % Effect vs. control ([7]; dose 3.0 mg/kg intraduodenally): 53.4% | Average Score lesions ([7]; dose 3.0 mg/kg intraduodenally): 2.7

CCCN(CCC)C(=O)C(CCC(=O)O)NC(=O)c1ccccc1 (stereo not drawn) [proglumide]
binding to CCK2 receptors [8]: effectively binds CCK2 receptors | potency and specificity as CCK receptor antagonist [5]: low potency and specificity

CCCCCN(CCCCC)C(=O)C(CCC(=O)O)NC(=O)c1ccc(Cl)c(Cl)c1 (racemic) [Lorglumide, R,S-4-[(3,4-Dichlorobenzoyl)amino]-5-(dipentylamino)-5-oxopentanoic acid]
potency and specificity as CCK receptor antagonist [5]: potent, specific competitive antagonists | activity after oral administration [6]: active after oral administration

CCCCCN(CCCOC)C(=O)[C@@H](CCC(=O)O)NC(=O)c1ccc(Cl)c(Cl)c1 [Dexloxiglumide, R-4-(3,4-dichlorobenzoylamino)-5-(N-3-methoxypropyl-pentylamino)-5-oxo-pentanoic acid]
tolerance to water volume ([2]; duodenal lipid infusion): reversed the diminished tolerance to water volume | dyspepsia symptom scores [9]: significantly improved dyspepsia symptom scores | colonic transit [10]: accelerates colonic transit | gallbladder contraction [10]: effective inhibitor of gallbladder contraction | gastric emptying [10]: accelerates gastric emptying | lower esophageal sphincter (LES) function [10]: improves lower esophageal sphincter (LES) function | potency relative to the racemic compound (loxiglumide) ([5]; anti-CCK activity): approximately twice | ED50 [7]: 37.5 mg/kg | % Effect vs. control ([7]; dose 10 mg/kg intraduodenally): 0% | Average Score lesions ([7]; dose 10 mg/kg intraduodenally): 5.8 | % Effect vs. control ([7]; dose 20 mg/kg intraduodenally): 17.2% | Average Score lesions ([7]; dose 20 mg/kg intraduodenally): 4.8 | % Effect vs. control ([7]; dose 40 mg/kg intraduodenally): 51.7% | Average Score lesions ([7]; dose 40 mg/kg intraduodenally): 2.6 | % Effect vs. control ([7]; dose 60 mg/kg intraduodenally): 62.1% | Average Score lesions ([7]; dose 60 mg/kg intraduodenally): 2.2 | % Effect vs. control ([7]; dose 100 mg/kg intraduodenally): 100% | Average Score lesions ([7]; dose 100 mg/kg intraduodenally): 0
